Data from PubChem BioAssay (NCI).
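Assay format: 96-well plates, 48-hour exposure. At the TGI there is no net growth.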

Key:
Assay in all cases: NCI anticancer screen, dose series, 48 h
NCI-H23 lung = tested on: NCI-H23 lung
UACC-62 melanoma = tested on: UACC-62 melanoma
RXF 393 renal = tested on: RXF 393 renal
SNB-19 CNS = tested on: SNB-19 CNS
NCI-H460 lung = tested on: NCI-H460 lung
OVCAR-4 ovarian = tested on: OVCAR-4 ovarian
KM12 colon = tested on: KM12 colon
MOLT-4 leukemia = tested on: MOLT-4 leukemia
U251 CNS = tested on: U251 CNS
SF-295 CNS = tested on: SF-295 CNS
OVCAR-8 ovarian = tested on: OVCAR-8 ovarian
HOP-62 NSCLC = tested on: HOP-62 NSCLC
CAKI-1 renal = tested on: CAKI-1 renal
SK-MEL-5 melanoma = tested on: SK-MEL-5 melanoma
UACC-257 melanoma = tested on: UACC-257 melanoma
SF-539 CNS = tested on: SF-539 CNS
NCI/ADR-RES ovarian = tested on: NCI/ADR-RES ovarian
IGROV1 ovarian = tested on: IGROV1 ovarian
SNB-75 CNS = tested on: SNB-75 CNS
SK-OV-3 ovarian = tested on: SK-OV-3 ovarian

SMILES	TGI (NCI-H23 lung) [µM]	TGI (UACC-62 melanoma) [µM]	TGI (RXF 393 renal) [µM]	TGI (SNB-19 CNS) [µM]	TGI (NCI-H460 lung) [µM]	TGI (OVCAR-4 ovarian) [µM]	TGI (KM12 colon) [µM]	TGI (MOLT-4 leukemia) [µM]	TGI (U251 CNS) [µM]	TGI (SF-295 CNS) [µM]	TGI (OVCAR-8 ovarian) [µM]	TGI (HOP-62 NSCLC) [µM]	TGI (CAKI-1 renal) [µM]	TGI (SK-MEL-5 melanoma) [µM]	TGI (UACC-257 melanoma) [µM]	TGI (SF-539 CNS) [µM]	TGI (NCI/ADR-RES ovarian) [µM]	TGI (IGROV1 ovarian) [µM]	TGI (SNB-75 CNS) [µM]	TGI (SK-OV-3 ovarian) [µM]
O=C(c1ccco1)C1CC(c2c(O)ccc3ccccc23)=NN1 (stereo not given)	37.7	26	50	47.8	19.9	> 100	24.3	42.7	34.1	23.3	51.5	27.3	38.8	29.7	57.9	26.7	51.1	42	33.6	56.6
CC1(C)OC2CC(=O)OCC23C1CC(=O)C1(C)C3CCC2(C)C(c3ccoc3)OC(=O)C3OC321 (stereo not given)	> 125	> 125	> 125	> 125	> 125	> 125	> 125	> 125	> 125	> 125	7.03	> 125	> 125	> 125	> 125	> 125	> 125	> 125	> 109	> 125
